Data on 54 compounds can be found in publication PMC5706701, “Development of a homogenous high-throughput assay for inositol hexakisphosphate kinase 1 activity” (PLoS ONE, 2017).

Where a name gives a salt, the structure may show the parent alone.

The experiment has as its target T1, Human IP6K1 (Homo sapiens, UniProt Q92551).
T1 construct: GST (N, cleaved yes); made in house; host or cells: C43 E. coli, pGEX-6P-2
Kind of experiment: IP6K1 high-throughput screen of the Sigma LOPAC (ADP-Glo Max, single point).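 Note: final compound concentration 10µM in 5% DMSO.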 Type of experiment: biochemical. In general terms: ADP-Glo first removes unused ATP, then detects ADP through luciferase.

The mark [1] stands for this setting: LOPAC single-point screen, ADP-Glo Max raw signal per well.
Where [2] appears, read: LOPAC single-point screen, Z-score against plate average and StDev.
Setting [3] is: LOPAC single-point screen, Z-score from raw signal with plate average and StDev.
Where [4] appears, read: LOPAC single-point screen, ADP-Glo Max luminescence raw signal per well.
Setting [5] is: LOPAC single-point screen, Z-score from plate average and StDev.
[6] abbreviates: Sigma LOPAC single-point screen, ADP-Glo Max raw signal per well.
[7] abbreviates: Sigma LOPAC single-point screen, Z-score from plate average and StDev.
Where [8] appears, read: LOPAC single-point screen, Z-score relative to plate average and StDev.

T1 sequence (Q92551 whole entry): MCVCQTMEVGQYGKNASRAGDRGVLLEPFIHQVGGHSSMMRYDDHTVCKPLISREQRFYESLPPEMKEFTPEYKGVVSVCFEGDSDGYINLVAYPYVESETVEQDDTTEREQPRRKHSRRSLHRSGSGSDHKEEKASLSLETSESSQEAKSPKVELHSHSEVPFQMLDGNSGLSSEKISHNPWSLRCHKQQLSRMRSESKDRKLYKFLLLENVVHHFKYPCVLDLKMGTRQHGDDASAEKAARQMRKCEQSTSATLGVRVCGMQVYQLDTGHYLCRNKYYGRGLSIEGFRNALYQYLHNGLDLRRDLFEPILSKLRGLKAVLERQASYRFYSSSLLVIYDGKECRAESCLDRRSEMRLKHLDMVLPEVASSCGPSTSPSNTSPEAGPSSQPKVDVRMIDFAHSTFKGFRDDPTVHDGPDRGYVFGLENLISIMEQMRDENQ

Regarding `CC(CCc1ccccc1)NC(C)C(O)c1ccc(O)cc1` (centres unmarked) [Nylidrin hydrochloride], under setting [1], the “Raw Signal” value amounted to 56232. The same compound returned a Z-score under setting [2] of 0.3089.

In the case of `NC(=O)c1ncn([C@@H]2O[C@H](CO)[C@@H](O)[C@H]2O)n1` [Ribavirin], the “Raw Signal” value under setting [1] is given as 54731. The same compound registered a Z-score under setting [3] of -0.2512.

As for `CCCC(CCC)C(=O)O` [Valproic acid sodium], under setting [4], the “Raw Signal” value turned out to be 64941. Also, under setting [5], the Z-score came to 1.772.

In the case of `C1COC(NC(C2CC2)C2CC2)=N1` [Rilmenidine hemifumarate], under setting [1], the “Raw Signal” value worked out at 56006. This compound also had a Z-score under setting [2] of -0.003459.

In the case of `C[C@@]12N[C@@H](Cc3ccccc31)c1ccccc12.O=C(O)/C=C\C(=O)O` [(-)-MK-801 hydrogen maleate], the “Raw Signal” value under setting [6] came to 58481. Under setting [7], this compound showed a Z-score of 0.6868.

Take `CC(CN1c2ccccc2Sc2ccccc21)N(C)C` (centres unmarked) [Promethazine hydrochloride]: the “Raw Signal” value under setting [6] is 57662. Besides, the Z-score under setting [7] amounted to 0.5492.

As for `Cl.O=C(Cc1ccc(Cl)c(Cl)c1)N1CCCCC1CN1CCCC1` (centres unmarked) [BRL 52537 hydrochloride], the “Raw Signal” value under setting [1] is reported as 55058. The compound also showed a Z-score under setting [3] of -0.1876.

Turning to `C[C@]12C=CC(=O)C=C1CC[C@@H]1C2=CC[C@]2(C)[C@@H](C(=O)CN3CCN(c4cc(N5CCCC5)nc(N5CCCC5)n4)CC3)CC[C@@H]12.O=C(O)/C=C\C(=O)O` [U-74389G maleate], the “Raw Signal” value under setting [4] was 52844. Under setting [8], this compound displayed a Z-score of -0.6178.

As for `CP(=O)(O)C1=CCNCC1` [TPMPA], the “Raw Signal” value under setting [6] came to 59668. In addition, the Z-score under setting [7] stood at 0.708.

For `O=C1CC[C@@]2(O)[C@H]3Cc4ccc(O)c5c4[C@@]2(CCN3CC2CC2)[C@H]1O5` [Naltrexone hydrochloride], the “Raw Signal” value under setting [1] is listed as 52231. The Z-score under setting [3] was -0.3634.

Turning to `Oc1cccc2c(O)nccc12` [1,5-Isoquinolinediol], the “Raw Signal” value under setting [1] was 54537. Further, under setting [2], the Z-score is reported as 0.02411.

As to `N[C@@H](Cc1ccc(N(CCCl)CCCl)cc1)C(=O)O` [Melphalan], the “Raw Signal” value under setting [6] turned out to be 56974. Moreover, under setting [7], the Z-score worked out at 0.4336.

`CC[N+](CC)(CC)CCOc1cccc(OCC[N+](CC)(CC)CC)c1OCC[N+](CC)(CC)CC` [Gallamine triethiodide]: under setting [1], the “Raw Signal” value is 56632. This compound gave a Z-score under setting [2] of 0.2975.

With `CC12CC3CC(C)(C1)CC(N)(C3)C2` [Memantine hydrochloride], the “Raw Signal” value under setting [1] was found to be 56169. This compound also came in with a Z-score under setting [2] of 0.2983.

In the case of `NCCCCCCCCCCN` [1,10-Diaminodecane], under setting [3], the Z-score is reported as -0.1121.

Consider `CCCNC(=O)NS(=O)(=O)c1ccc(Cl)cc1` [Chlorpropamide], for which the “Raw Signal” value under setting [1] worked out at 58549. The Z-score under setting [2] came out at 0.112.

Consider `CC(=O)OCC1=C(C(=O)O)N2C(=O)[C@@H](NC(=O)Cc3cccs3)[C@H]2SC1` [Cephalothin sodium], for which, under setting [1], the “Raw Signal” value came to 58709. For the same compound, the Z-score under setting [2] turned out to be 0.1402.

Regarding `CCCN1CCC[C@@H]2Cc3nc(N)ncc3C[C@H]21.Cl.Cl` [Quinelorane dihydrochloride], under setting [4], the “Raw Signal” value was 53110. Further, the Z-score under setting [8] was -0.5661.

`CCNC(=O)[C@H]1O[C@@H](n2cnc3c(NCc4ccccc4)ncnc32)[C@H](O)[C@@H]1O` [N6-Benzyl-5 -N-ethylcarboxamidoadenosine]: under setting [1], the “Raw Signal” value is reported as 59001. For the same compound, under setting [2], the Z-score amounted to 0.1916.

In the case of `Cl.O=c1[nH]oc2c1CCNC2` [THIP hydrochloride], the “Raw Signal” value under setting [6] stood at 60339. Moreover, the Z-score under setting [7] is 0.8384.

For the compound `CNc1ccc2oc(C[C@H]3O[C@@]4(CC[C@H]3C)O[C@H]([C@H](C)C(=O)c3ccc[nH]3)[C@H](C)C[C@H]4C)nc2c1C(=O)O` [Calcimycin], the “Raw Signal” value under setting [4] came to 66206. The compound further came in with a Z-score under setting [5] of 1.461.

In the case of `Cc1ncc(CNC(=O)N(CCCl)N=O)c(N)n1` [Nimustine hydrochloride], the “Raw Signal” value under setting [1] was 54692. The compound further displayed a Z-score under setting [2] of 0.05015.

`N=C(N)c1ccc(OCCCCCOc2ccc(C(=N)N)cc2)cc1` [Pentamidine isethionate]: the “Raw Signal” value under setting [1] was 54696. The compound further yielded a Z-score under setting [2] of 0.05083.

In the case of `Cn1c(=O)c2[nH]c(-c3ccc(S(=O)(=O)O)cc3)nc2n(C)c1=O` [8-(p-Sulfophenyl)theophylline], the “Raw Signal” value under setting [1] was 56907. The compound further registered a Z-score under setting [3] of -0.1772.

Turning to `CC(=O)NBr` [N-Bromoacetamide], the “Raw Signal” value under setting [6] was found to be 65186. For the same compound, under setting [7], the Z-score is 1.281.

As to `CCNC(=O)N1CCN(CCCC(c2ccc(F)cc2)c2ccc(F)cc2)CC1` [Amperozide hydrochloride], the “Raw Signal” value under setting [4] is on record as 52806. Also, under setting [8], the Z-score was -0.8995.

`CC(C)(C)c1onc(OCP(=O)(O)O)c1CC(N)C(=O)O` (centres unmarked) [ATPO]: under setting [6], the “Raw Signal” value turned out to be 60120. The compound further displayed a Z-score under setting [7] of 0.3887.

As for `CCCCCCCC/C=C\CCCCCCCC(=O)NCCc1ccc(O)c(O)c1` [N-Oleoyldopamine], the “Raw Signal” value under setting [4] came out at 53486. This compound returned a Z-score under setting [8] of -0.493.

Regarding `Cc1nccc2c1[nH]c1ccccc12` [Harmane], under setting [4], the “Raw Signal” value stood at 51802. Also, under setting [8], the Z-score was -0.6834.

Consider `CN(C)CC[C@@H](c1ccc(Br)cc1)c1ccccn1` [(+)-Brompheniramine maleate], for which the “Raw Signal” value under setting [4] came to 67936. Under setting [5], this compound displayed a Z-score of 1.765.

As to `N=C(N)c1ccccc1` [Benzamidine hydrochloride], under setting [1], the “Raw Signal” value was 57181. Under setting [3], this compound came in with a Z-score of -0.1289.

For `C/C=C(/C)C(=O)O[C@H]1C(C)=C2[C@H]([C@@H]1OC(=O)CCCCCCC)[C@@](C)(OC(C)=O)C[C@H](OC(=O)CCC)[C@@]1(O)[C@H]2OC(=O)[C@@]1(C)O` [Thapsigargin], the “Raw Signal” value under setting [1] was found to be 56574. Under setting [2], the Z-score turned out to be 0.1069.

On to `O=c1c2ccccc2[nH]c(=S)n1CCN1CCC(=C(c2ccc(F)cc2)c2ccc(F)cc2)CC1` [Diacylglycerol Kinase Inhibitor II], for which, under setting [1], the “Raw Signal” value amounted to 55319. Further, the Z-score under setting [2] is 0.03086.

Take `CN(C(=O)CCCOc1ccc2[nH]c(=O)ccc2c1)C1CCCCC1` [Cilostamide]: the “Raw Signal” value under setting [4] was 54164. Under setting [8], this compound yielded a Z-score of -0.6603.

With `O=C(c1ccc2c(c1)OCCO2)N1CCCCC1` [CX 546], under setting [6], the “Raw Signal” value was 57767. This compound came in with a Z-score under setting [7] of 0.528.

As to `CCCc1c(OCCCOc2ccc(OCC(=O)O)cc2)ccc(C(C)=O)c1O` [L-165,041], under setting [6], the “Raw Signal” value is listed as 57961. For the same compound, under setting [7], the Z-score was determined as 0.5674.

In the case of `Cn1ccnc1` [1-Methylimidazole], the “Raw Signal” value under setting [6] was found to be 56921. Under setting [7], this compound had a Z-score of 0.4247.

As for `NC(CP(=O)(O)O)C(=O)O` (racemic) [(±)-2-Amino-3-phosphonopropionic acid], the “Raw Signal” value under setting [4] is listed as 53469. This compound registered a Z-score under setting [8] of -0.7827.

`COc1ccccc1N1CCN(CCN(C(=O)C2CCCCC2)c2ccccn2)CC1.O=C(O)/C=C\C(=O)O` [WAY-100635 maleate]: the “Raw Signal” value under setting [1] is reported as 54317. Under setting [3], this compound displayed a Z-score of -0.3316.

`Cc1cn([C@H]2C[C@H](N=[N+]=[N-])[C@@H](CO)O2)c(=O)[nH]c1=O` [3 -Azido-3 -deoxythymidine]: the “Raw Signal” value under setting [6] is 61635. This compound came in with a Z-score under setting [7] of 0.6555.

For `N#C/C(=C\c1ccc(O)c(O)c1)C(=O)NCc1ccccc1` [Tyrphostin AG 490], under setting [1], the “Raw Signal” value is reported as 54184. Further, under setting [3], the Z-score is -0.3574.

For the compound `Nc1ccc2c3c(cccc13)C(=O)NC2=O` [4-Amino-1,8-naphthalimide], under setting [4], the “Raw Signal” value was 55002. In addition, under setting [8], the Z-score is recorded as -0.5127.

Turning to `CCC1(c2ccccc2)C(=O)NCNC1=O` [Primidone], under setting [6], the “Raw Signal” value amounted to 58828. In addition, under setting [7], the Z-score was 0.5448.

As to `COC1(C2=NCCN2)COc2ccccc2O1.Cl` (centres unmarked) [RX 821002 hydrochloride], under setting [1], the “Raw Signal” value is reported as 56903. Also, under setting [2], the Z-score is recorded as 0.1708.

As for `O=C1Nc2ccccc2/C1=C1/Nc2ccccc2/C1=N\O` [Indirubin-3 -oxime], the “Raw Signal” value under setting [6] is recorded as 58050. The compound also gave a Z-score under setting [7] of 0.5855.

With `CC(C)OC(=O)C(C)(C)Oc1ccc(C(=O)c2ccc(Cl)cc2)cc1` [Fenofibrate], the “Raw Signal” value under setting [4] worked out at 61843. For the same compound, under setting [5], the Z-score came to 1.356.

`CN1C2CCC1CC(NC(=O)c1nn(C)c3ccccc13)C2.O=C(O)/C=C\C(=O)O` (centres unmarked) [LY-278,584 maleate]: the “Raw Signal” value under setting [4] came out at 49124. Besides, the Z-score under setting [8] is reported as -0.8854.

As to NS 521 oxalate, the “Raw Signal” value under setting [1] is listed as 56111. Under setting [2], this compound returned a Z-score of 0.2886.

For the compound `Nc1nc(O)c2ncn(COC(CO)CO)c2n1` [Ganciclovir], under setting [6], the “Raw Signal” value was found to be 57228. Besides, the Z-score under setting [7] was 0.4186.

`Cc1cc(N)c2ccccc2[n+]1CCCCCCCCCCCCCC[n+]1c(C)cc(N)c2ccccc21` [Dequalinium analog, C-14 linker]: the “Raw Signal” value under setting [4] is given as 52424. This compound yielded a Z-score under setting [8] of -0.5571.

As for `CC1=C(CC(=O)O)c2cc(F)ccc2/C1=C\c1ccc([S+](C)[O-])cc1` (centres unmarked) [Sulindac], the “Raw Signal” value under setting [4] is on record as 51494. The compound also showed a Z-score under setting [8] of -0.8801.

For the compound `CCCCCCCCCCCCCCCC(=O)NCCO` [Palmitoylethanolamide], under setting [4], the “Raw Signal” value was determined as 51451. Further, the Z-score under setting [8] is -0.4944.

As to `CN1[C@@H]2CC[C@H]1C[C@@H](OC(=O)C(CO)c1ccccc1)C2` (some centres unmarked) [Atropine sulfate], the “Raw Signal” value under setting [1] was 57358. The compound also gave a Z-score under setting [3] of -0.09777.

`O=C(CCCN1CCC2(CC1)C(=O)NCN2c1ccccc1)c1ccc(F)cc1` [Spiperone hydrochloride]: the “Raw Signal” value under setting [4] was 52620. Under setting [8], the Z-score is -0.6613.
